{"source": "patent US5208223A", "about": "“Phosphocholine derivative inhibitors of phospholipase A2” (American Cyanamid Company, priority 1992, dated 1993)", "molecular_target": "T1, porcine pancreatic PLA2 (Sus scrofa, UniProt P00592)", "T1 construct": "purchased Sigma", "T1 sequence (P00592 23-146)": "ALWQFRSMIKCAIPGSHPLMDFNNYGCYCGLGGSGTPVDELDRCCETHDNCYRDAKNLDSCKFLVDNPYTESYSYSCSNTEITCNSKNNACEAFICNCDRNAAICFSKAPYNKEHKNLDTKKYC", "assay": "PLA2 assay: in vitro porcine pancreatic phospholipase A2, preincubation of drug+enzyme, substrate 2 nM", "format": "biochemical", "conditions": "preincubation, subs. con. 2; for IC50: read-out: IC50 (converted)", "description": "Phospholipase A2 activity was measured by a radiochemical assay in which labeled synthetic phosphatidylcholine substrate is converted by porcine pancreatic PLA2 to free radiolabeled arachidonate and lyso PC. Radiolabeled arachidonate is extracted from the reaction mixture and separated from unreacted substrate by column chromatography or TLC. Radioactivity (cpm) in samples is quantitated by liquid scintillation counting. Specific details are as follows:\nLabeled substrate(1-stearyl-2-^3 H-arachidonylphosphatidylcholine; Amersham, sp. act. 84 (uCi/mmole, 0.025 to 0.2 uCi/assay tube and unlabeled substrates (Avanti), in sufficient quantity to give 20,000 cpm to 50,000 cpm and 10 μM to 1,000 μM final concentration/assay tube are dried under a stream of nitrogen. The PLA2 and mPLA2 assays utilized a […] substrate concentration. The mHPLA2 and HPLA2 assays (vida infra) utilized a 10 μM substrate concentration and the SmPLA2 assay utilized a substrate concentration ranging from 100 to 1000 μm. The substrate is then redissolved in 0.1M tris-HCl buffer, pH 9.0 containing 10 mM CaCl2 and 10 mM Na taurocholate detergent. The mixture is sonicated in a Kontes Sonifier to yield a homogeneous dispersion. The \"mixed\" micellar substrate is clear. An aliquot is reserved for a cpm count (total substrate). The total reaction volume is 500 μL; siliconized glassware or plasticware is used throughout. Enzyme (Sigma, sp. act.>690 U/mg protein and preferably 900 U/mg protein) is diluted 1:750 or 1:1000 in 0.1M tris-HCl buffer, pH 9.0 (without Ca^++ and detergent). Enzyme dilution depends on substrate concentration and required enzyme concentration.\nThe substrate in buffer is kept on ice until the reaction is started. The reaction is started by adding 10 μL of diluted enzyme solution to 490 μL of micellar substrate solution. Samples are incubated in a 37° C. water bath for 15 minutes with gentle mixing. The reaction is terminated by the addition of 100 μL of 1M fresh trichloroacetic acid (TCA) solution and chilling the tubes on ice for 30 minutes.\nSamples (600 μL) are extracted with 3 ml CHCl3 /MeOH (2:1) for thin layer chromatography or in hexane/ether (9:1) for column chromatography. The phases are separated by gentle centrifugation at 700 rpm×5'. The organic phase is recovered.\nLabeled arachidonate extracted with CHCl3 /MeOH is separated on silica gel G TLC plates (Analtech). Twenty μL of a 2 mg/ml internal standard solution of arachidonic acid (Sigma) is combined with 2-3 ml of the organic phase. The entire mixture is dried under nitrogen and redissolved in 50 μL of CHCl3 /MeOH (2:1). A 20 μL sample is counted in 10 ml of Beckman Redi-solv HP and spotted on silica gel G plates. The solvent system used to develop the plate is CHCl3 /MeOH/13.5N NH3 /H2 O (70:30:4:1). Plates are developed in a glass chamber for 1-11/2 hours, air dried, and the spots visualized in an iodine vapor chamber. Standards of phosphatidylcholine, lyso PC, and arachidonic acid (Sigma) are made as 2 mg/ml stocks in CHCl3 /MeOH (2:1) and spotted on plates. Spots corresponding to arachidonate and phospholipid are scraped and counted in 10 ml Beckman Redi-Solv HP scintillation fluid.\nSamples are extracted with hexane/ether and the upper organic phase recovered. An aliquot is applied to a Silicar CC4 (Malincrodt) column. Columns are prepared using 1 ml of a 1:1 slurry of silicar CC4 in hexane/ether in a Pasteur pipet (approx. 2 cm height). Columns are rinsed with 500 μL of hexane/ether before adding the sample (300-600 μL) to the column. Columns are eluted with a total of 6 ml of hexane/ether. The 6 ml sample is counted in 10 ml of Beckman Redi-Solv HP scintillation fluid.\nor the phospholipase A2 assay, compounds are prepared as 1 mg/ml stock solutions in MeOH and diluted appropriately in PBS.", "key": {"[1]": {"conditions": "dose 10 μ/ml, read-out: % Inh. Avg."}}, "note": "Where a name gives a salt, the structure may show the parent alone. Read-outs that look alike come from different tables or passages of the source.", "data": [{"smiles": "CCCCCCCCCCCCCCCCOC[C@H](COP(=O)([O-])OCC[N+](C)(C)C)OP(=O)(OC)OCCCCCCCCCCCCCCCC", "note": "(single isomer, unassigned)", "values": [{"measurement": "inhibition at 10 µg/mL", "setting": "[1]", "value": 22, "unit": "%"}, {"measurement": "inhibition at 20 µg/mL", "setting": "dose 20 μ/ml, read-out: % Inh. Avg.", "value": 34, "unit": "%"}, {"measurement": "IC50", "value": 17.1, "unit": "µM"}]}, {"smiles": "CCCCCCCCCCCCCCCCOC[C@@H](COP(=O)([O-])OCC[N+](C)(C)C)OP(=O)(OC)OCCCCCCCCCCCCCCCC", "note": "(single isomer, unassigned)", "values": [{"measurement": "inhibition at 25 µg/mL", "setting": "dose 25 μ/ml, read-out: % Inh.", "value": 91, "unit": "%"}, {"measurement": "IC50", "value": 4.12, "unit": "µM"}]}, {"smiles": "CCCCCCCCCCCCCCCCOC[C@H](COP(=O)([O-])OCC[N+](C)(C)C)OP(=O)(OC)OCCCCCCCCCCCCCCCC", "note": "(single isomer, unassigned) [3,5,8,10-Tetraoxa-4,9-diphosphahexacosan-1-aminium, 7-[(hexa]", "values": [{"measurement": "% Inh. Avg.", "setting": "dose 20 μ/ml", "value": 28, "unit": "%"}]}, {"smiles": "CCCCCCCCCCCCCCCCOCC(COP(=O)([O-])OCC[N+](C)(C)C)OP(=O)(OC)OCCCCC", "note": "(single isomer, unassigned) [3,5,8,10-Tetraoxa-4,9-diphosphapentadecan-1-aminium, 7-[(hexadecyloxy)methyl]-4-hydroxy-9-methoxy-N,N,N-trimethyl-, hydroxide, 4-(inner salt), 4,9-dioxide, less polar isomer]", "values": [{"measurement": "inhibition at 10 µg/mL", "setting": "dose 10 μ/ml, read-out: % Inh.", "value": 76, "unit": "%"}, {"measurement": "inhibition at 20 µg/mL", "setting": "dose 20 μ/ml, read-out: % Inh.", "value": 83, "unit": "%"}, {"measurement": "IC50", "value": 8.05, "unit": "µM"}]}, {"smiles": "CCCCCCCCCCCCCCCCOCC(COP(=O)([O-])OCC[N+](C)(C)C)CC(O)CCCCCCCCCCCCCCCC", "note": "(single isomer, unassigned) [4-Hydroxy-7-(2-hydroxyoctadecyl)-N,N,N-trimethyl-3,5,9-triox] [4-Hydroxy-7-(2-hydroxyoctadecyl)-N,N,N-trimethyl-3,5,9-trioxa-4-phosphapentacosan-1-aminium, hydroxide, inner salt, 4-oxide isomer]", "values": [{"measurement": "% Inh.", "setting": "dose 10 μ/ml", "value": 80, "unit": "%"}]}, {"smiles": "CCCCCCCCCCCCCCCCOCC(COP(=O)([O-])OCC[N+](C)(C)C)CC(O)CCCCCCCCCCCCCCCC", "note": "(single isomer, unassigned) [4-Hydroxy-7-(2-hydroxyoctadecyl)-N,N,N-trimethyl-3,5,9-trioxa-4-phosphapentacosan-1-aminium, hydroxide, inner salt, 4-oxide isomer]", "values": [{"measurement": "IC50", "value": 2.32, "unit": "µM"}]}, {"smiles": "CCCCCCCCCCCCCCCCOCC(COP(=O)([O-])OCC[N+](C)(C)C)CC(O)CCCCCCCCCCCCCCCC", "note": "(single isomer, unassigned) [4-Hydroxy-7-(2-hydroxyoctadecyl)-N,N,N-trimethyl-3,5,9-trioxa-4-phosphapentacosan-1-aminium, hydroxide, inner salt, 4-oxide]", "values": [{"measurement": "inhibition at 10 µg/mL", "setting": "dose 10 μ/ml, read-out: % Inh.", "value": 80, "unit": "%"}, {"measurement": "inhibition at 20 µg/mL", "setting": "dose 20 μ/ml, read-out: % Inh.", "value": 80, "unit": "%"}, {"measurement": "IC50", "value": 2.18, "unit": "µM"}]}, {"smiles": "CCCCCCCCCCCCCCCCOP(=O)(OC)OCCOP(=O)(O)OCCBr", "note": "(centres unmarked) [2-[[(2-Bromoethoxy)hydroxyphosphinyl]oxy]ethyl hexadecyl phosphoric acid, methyl ester]", "values": [{"measurement": "inhibition at 10 µg/mL", "setting": "[1]", "value": 21, "unit": "%"}]}, {"smiles": "CCCCCCCCCCCCCCCCOCC(COP(=O)([O-])OCC[N+](C)(C)C)OP(=O)(OC)OCCCCCCCCCCCCCCCC", "note": "(centres unmarked) [3,5,8,10-Tetraoxa-4,9-diphosphahexacosan-1-aminium, 7-[(hexa] [3,5,8,10-Tetraoxa-4,9-diphosphahexacosan-1-aminium, 7-[(hexadecyloxy)methyl]-4-hydroxy-9-methoxy-N,N,N-trimethyl-, hydroxide, inner salt, 4,9-dioxide]", "values": [{"measurement": "% Inh. Avg.", "setting": "dose 10 μ/ml", "value": 30, "unit": "%"}, {"measurement": "% Inh. Avg.", "setting": "dose 25 μ/ml", "value": 75, "unit": "%"}, {"measurement": "% Inh. Avg.", "setting": "dose 50 μ/ml", "value": 77, "unit": "%"}]}, {"smiles": "CCCCCCCCCCCCCCCCOP(=O)(O)OCCOP(=O)([O-])OCC[N+](C)(C)C", "note": "[3,9-Dihydroxy-N,N,N-trimethyl-3,5,8,10-tetraoxa-4,9-diphosphahexacosan-1-aminium, hydroxide, 4-(inner salt) 4,9-dioxide]", "values": [{"measurement": "inhibition at 10 µg/mL", "setting": "[1]", "value": 20, "unit": "%"}]}, {"smiles": "CCCCCCCCCCCCCCCCCCOP(=O)(O)OCCOP(=O)([O-])OCC[N+](C)(C)C", "note": "[4,9-Dihydroxy-N,N,N-trimethyl-3,5,8,10-tetraoxa-4,9-diphosphaoctacosan-1-aminium, hydroxide, 4-(inner salt), 4,9-dioxide]", "values": [{"measurement": "inhibition at 10 µg/mL", "setting": "[1]", "value": 40, "unit": "%"}]}]}
